In paper PMC7614683, “A small molecule PI3Kα activator for cardioprotection and neuroregeneration” (Nature, 2023):
Like-named read-outs stand apart in the source and are kept apart here.

Key:
HeLa cells = assay: TIRF microscopy of PIP3 and PI(3,4)P2 reporters, HeLa; type: cell-based, human
Procedure: Phosphoinositide reporters used were GFP-PH-ARNO^I303Ex2 (PIP3 reporter[41]) and mCherry-cPH-TAPP1x3 (PI(3,4)P2 reporter[41]). TIRF microscopy allows selective imaging of the small cell volume, including the plasma membrane, directly adjacent to the coverslip onto which cells have been seeded. HeLa or A549 cells were seeded in Matrigel-coated (Corning #354230; diluted in Opti-MEM at 1:50) 8-well chamber slides (glass bottom, 1.55 refractive index; Thermo Fisher Scientific #155409) at a density of 5,000 cells/well. […]
Image analyses of total reporter intensities were performed with the Fiji open source image analysis package. The region of interest (ROI) corresponding to the footprint of the individual cell across time points were defined using minimal intensity projection to select only pixels present across all time points, following prior subtraction of camera noise (rolling ball method, radius = 500 pixels) and xy drift correction, intensity levels over time were measured. […] All other quantifications were performed using the open source software R/RStudio. The values plotted in Fig. 3d (iii) represent mean±SEM, following signal scaling to minimum and maximum values of the normalised fluorescence intensity for each time point (Fn(t)). […]

[1] = molecular target: PIK3CA/PIK3R1 (p110 alpha/p85 alpha) (Homo sapiens, UniProt P42336); assay: SelectScreen Adapta; type: biochemical
Chain of PIK3CA/PIK3R1 (p110 alpha/p85 alpha) (P42336 whole entry): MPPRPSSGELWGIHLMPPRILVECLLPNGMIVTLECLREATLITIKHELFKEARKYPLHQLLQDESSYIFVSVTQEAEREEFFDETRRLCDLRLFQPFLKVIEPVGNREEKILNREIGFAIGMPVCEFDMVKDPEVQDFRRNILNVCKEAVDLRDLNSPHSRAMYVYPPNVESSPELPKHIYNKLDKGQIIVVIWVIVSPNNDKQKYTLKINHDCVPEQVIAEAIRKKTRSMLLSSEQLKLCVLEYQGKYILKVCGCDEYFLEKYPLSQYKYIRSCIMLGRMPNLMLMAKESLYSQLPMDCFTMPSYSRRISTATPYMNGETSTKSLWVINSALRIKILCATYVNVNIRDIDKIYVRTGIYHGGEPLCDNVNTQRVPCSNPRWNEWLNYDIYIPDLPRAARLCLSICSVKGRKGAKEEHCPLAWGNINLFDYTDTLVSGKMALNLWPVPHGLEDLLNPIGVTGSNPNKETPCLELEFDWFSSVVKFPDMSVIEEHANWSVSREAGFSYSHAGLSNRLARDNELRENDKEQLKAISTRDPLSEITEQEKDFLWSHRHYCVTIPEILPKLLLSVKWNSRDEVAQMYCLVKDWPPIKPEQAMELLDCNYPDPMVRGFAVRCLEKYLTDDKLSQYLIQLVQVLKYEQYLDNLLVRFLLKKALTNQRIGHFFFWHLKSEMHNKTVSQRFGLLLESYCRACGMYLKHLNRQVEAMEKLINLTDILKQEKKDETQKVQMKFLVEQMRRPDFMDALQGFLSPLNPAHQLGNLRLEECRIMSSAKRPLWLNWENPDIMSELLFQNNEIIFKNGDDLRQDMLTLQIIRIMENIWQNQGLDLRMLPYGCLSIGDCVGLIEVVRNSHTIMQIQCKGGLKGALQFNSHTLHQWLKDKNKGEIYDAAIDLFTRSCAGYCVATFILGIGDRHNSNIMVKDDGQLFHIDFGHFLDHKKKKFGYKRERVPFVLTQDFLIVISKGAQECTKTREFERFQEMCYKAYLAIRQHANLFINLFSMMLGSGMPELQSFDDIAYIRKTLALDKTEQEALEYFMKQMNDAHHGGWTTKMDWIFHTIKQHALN
Chain of PIK3CA/PIK3R1 (p110 alpha/p85 alpha) (P27986 whole entry partner): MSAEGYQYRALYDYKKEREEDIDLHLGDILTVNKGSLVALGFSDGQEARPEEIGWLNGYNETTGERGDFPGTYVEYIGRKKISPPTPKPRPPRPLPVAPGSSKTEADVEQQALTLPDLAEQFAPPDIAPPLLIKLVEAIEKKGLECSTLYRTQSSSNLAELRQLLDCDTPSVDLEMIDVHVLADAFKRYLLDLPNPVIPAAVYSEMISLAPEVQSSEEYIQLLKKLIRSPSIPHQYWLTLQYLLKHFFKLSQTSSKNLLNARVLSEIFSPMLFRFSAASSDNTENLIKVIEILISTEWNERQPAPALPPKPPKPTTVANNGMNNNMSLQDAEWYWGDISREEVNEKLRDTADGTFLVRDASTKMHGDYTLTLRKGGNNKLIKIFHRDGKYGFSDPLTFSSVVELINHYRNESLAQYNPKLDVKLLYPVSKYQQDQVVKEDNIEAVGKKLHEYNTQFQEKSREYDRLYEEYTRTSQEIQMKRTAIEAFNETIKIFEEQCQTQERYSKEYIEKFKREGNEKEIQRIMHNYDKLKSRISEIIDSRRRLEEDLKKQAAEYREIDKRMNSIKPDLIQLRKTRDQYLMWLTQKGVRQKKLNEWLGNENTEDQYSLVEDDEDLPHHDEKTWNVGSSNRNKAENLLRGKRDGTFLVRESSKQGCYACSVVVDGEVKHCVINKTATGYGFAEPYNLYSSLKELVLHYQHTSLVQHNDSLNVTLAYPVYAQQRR
Procedure: (§1) 133 protein kinases and 7 lipid kinases were counterscreened, with 1938 used at 1 μM, using the Adapta, Lantha and Z-LYTE assays (SelectScreen Kinase Profiling Service; Thermofisher – experimental details of these assays can be found here: https://www.thermofisher.com/uk/en/home/industrial/pharma-biopharma/drug-discovery-development/target-and-lead-identification-and-validation/kinasebiology/kinase-activity-assays.html. The tree represention in KinMap[59] generated courtesy of Cell Signaling Technology, Inc. (www.cellsignal.com). mTORC1 (mTOR/RAPTOR/LST8) protein complex and ATM kinase and substrates were produced as previously described[57],[60]. Screening of 1938 was conducted using SuperSep Phos-Tag 50 μmol/l 100 x 100 x 6.6 mm 17-well (192-18001/199-18011) gels. For ATM assays, 100 nM ATM was incubated for 30 min at 30°C with 5 μM GST-p53 and 1 mM ATP, in the absence or presence of 200 μM 1938 in ATM Kinase Buffer (50 mM HEPES pH 7.5, 100 mM NaCl, 10% glycerol, 2 mM […], 5 mM MgCl2). As a positive control for ATM activation, the same reaction was carried out with 100 nM ATM/5 μM GST-p53/1 mM ATP in the presence of 100 nM Mre11-Rad50-Nbs1 (MRN) complex, a known activator of ATM[61]. For mTORC1 assays, 50 nM mTORC1 complex (mTOR/LST8/RAPTOR) was incubated for 3 h at 30°C with 15 μM 4E-BP1, 10 mM MgCl2 and 250 μM ATP, in the absence or presence of 200 μM 1938. As a ‘positive’ control, a higher concentration (150 nM) of mTORC1 complex (mTOR/LST8/RAPTOR) was incubated for 3 h at 30°C with 15 μM 4E-BP1, 10 mM MgCl2 and 250 μM ATP. Kinase reactions were quenched by addition of SDS-PAGE Loading Buffer (as per manufacturer’s instructions) and freezing at -20°C before being run on the Phos-tag gels at 150 V for 90 min. Gels were then stained using InstantBlue™ Coomassie, and quantified using BioRad Image Lab Software. Kinase assays were carried out in triplicate.

CAMK1 (CaMK1) = CAMK1 (CaMK1) (Homo sapiens, UniProt Q14012); assay: SelectScreen Adapta; type: biochemical; conditions: 1000 nM, [ATP] 10 μM
Procedure: as §1

PIK3C2A (PI3K-C2 alpha) = PIK3C2A (PI3K-C2 alpha) (Homo sapiens, UniProt O00443); assay: SelectScreen Adapta; type: biochemical
Chain of PIK3C2A (PI3K-C2 alpha) (O00443 whole entry): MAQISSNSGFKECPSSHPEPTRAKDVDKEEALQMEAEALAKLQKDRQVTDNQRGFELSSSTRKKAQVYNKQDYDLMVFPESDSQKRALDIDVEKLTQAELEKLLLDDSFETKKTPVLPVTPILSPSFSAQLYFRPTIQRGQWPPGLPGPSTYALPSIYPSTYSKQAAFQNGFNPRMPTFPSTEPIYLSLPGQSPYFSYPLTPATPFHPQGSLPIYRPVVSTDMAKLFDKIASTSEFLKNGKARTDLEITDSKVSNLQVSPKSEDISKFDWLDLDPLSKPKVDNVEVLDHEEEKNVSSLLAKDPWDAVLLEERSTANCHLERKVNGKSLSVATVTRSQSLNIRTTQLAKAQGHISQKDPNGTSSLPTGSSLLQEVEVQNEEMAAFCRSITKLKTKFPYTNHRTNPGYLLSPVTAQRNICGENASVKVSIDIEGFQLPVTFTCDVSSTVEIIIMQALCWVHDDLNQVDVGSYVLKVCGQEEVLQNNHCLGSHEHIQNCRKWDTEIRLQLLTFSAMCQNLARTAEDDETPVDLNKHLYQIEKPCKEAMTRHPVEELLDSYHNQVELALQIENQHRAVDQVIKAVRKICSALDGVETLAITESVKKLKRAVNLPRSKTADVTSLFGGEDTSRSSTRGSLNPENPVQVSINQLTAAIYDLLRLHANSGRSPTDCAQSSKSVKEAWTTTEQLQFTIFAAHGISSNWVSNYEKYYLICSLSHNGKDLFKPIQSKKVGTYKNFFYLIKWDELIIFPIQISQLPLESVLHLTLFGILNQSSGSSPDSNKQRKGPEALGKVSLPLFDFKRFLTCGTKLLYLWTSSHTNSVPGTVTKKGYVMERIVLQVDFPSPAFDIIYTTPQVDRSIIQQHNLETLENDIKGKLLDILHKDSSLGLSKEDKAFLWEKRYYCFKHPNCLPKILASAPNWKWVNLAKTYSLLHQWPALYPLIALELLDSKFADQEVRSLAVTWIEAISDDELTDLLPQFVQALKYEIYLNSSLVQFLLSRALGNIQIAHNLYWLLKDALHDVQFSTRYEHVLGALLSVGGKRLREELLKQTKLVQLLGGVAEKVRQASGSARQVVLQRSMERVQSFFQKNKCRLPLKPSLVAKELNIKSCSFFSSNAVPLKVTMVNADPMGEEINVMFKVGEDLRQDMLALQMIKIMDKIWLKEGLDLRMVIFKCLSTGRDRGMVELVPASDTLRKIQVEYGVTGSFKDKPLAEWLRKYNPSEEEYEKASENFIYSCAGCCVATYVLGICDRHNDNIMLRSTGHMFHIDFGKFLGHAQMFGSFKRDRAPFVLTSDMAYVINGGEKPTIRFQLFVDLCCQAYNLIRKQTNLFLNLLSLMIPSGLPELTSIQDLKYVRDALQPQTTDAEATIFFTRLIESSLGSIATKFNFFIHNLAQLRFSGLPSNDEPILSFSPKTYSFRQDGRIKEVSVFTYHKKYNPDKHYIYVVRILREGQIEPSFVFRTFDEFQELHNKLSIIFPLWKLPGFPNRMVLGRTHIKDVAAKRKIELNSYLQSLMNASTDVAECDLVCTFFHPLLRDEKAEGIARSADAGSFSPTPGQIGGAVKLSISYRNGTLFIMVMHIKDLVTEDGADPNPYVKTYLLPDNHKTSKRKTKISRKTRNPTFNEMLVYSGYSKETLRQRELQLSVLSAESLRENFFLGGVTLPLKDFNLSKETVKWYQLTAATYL
Procedure: as §1

CCN1CCN(c2ccc(Nc3cc(Nc4cccc5c4N(C(C)=O)CC5)ccn3)cc2)CC1 [Compound 1938]
membrane-associated PI(3,4)P2 (biosensor) (HeLa cells): generation of membrane-associated PI(3,4)P2 | plasma membrane PIP3 (biosensor) (HeLa cells): acute and BYL719-sensitive burst of PIP3 | inhibition at 1 µM ([1]; read-out: % Inhibition Point 1): -19% | inhibition at 1 µM ([1]; read-out: % Inhibition Point 2): -20% | inhibition at 1 µM ([1]; read-out: % Inhibition mean): -19% | inhibition at 1 µM (CAMK1 (CaMK1); read-out: % Inhibition Point 1): 26% | inhibition at 1 µM (CAMK1 (CaMK1); read-out: % Inhibition Point 2): 23% | inhibition at 1 µM (CAMK1 (CaMK1); read-out: % Inhibition mean): 25% | inhibition at 1 µM (PIK3C2A (PI3K-C2 alpha); read-out: % Inhibition Point 1): 2% | inhibition at 1 µM (PIK3C2A (PI3K-C2 alpha); read-out: % Inhibition Point 2): 3.23% | inhibition at 1 µM (PIK3C2A (PI3K-C2 alpha); read-out: % Inhibition mean): 2.57%
